According to US20080317857A1, “V-Atpase Inhibitors of Use in the Treatment of Septic Shock” (Brane Discovery S.r.l., priority 2005, published 2008):

What was measured:
[1] = system: PMNs; assay: Chemoattractant-induced rapid adhesion of PMNs to fibrinogen (CR3 ligand); assay type: cell-based; conditions: Homo sapiens, read-out: Inhibition of Adhesion (%) PMNs (fMLP) (converted); for inhibition at 25 µM: [cpd] 25 μM; for inhibition at 50 µM: [cpd] 50 μM; for inhibition at 100 µM: [cpd] 100 μM
Description: (§1) Adhesion was performed on purified integrin ligands and was evaluated as reported in Constantin G. et al., Immunity, 16, 759-769, 2000. Briefly, primary naïve lymphocytes, polymorphonuclear neutrophils (PMNs) or monocytes were isolated form healthy donors. In other experiments, murine autoreactive T cells were obtained from SJL mice immunized with PLP139-151 as described (Piccio L. et al., J. Immunol. 168, 1940-1949, 2002). Cells were resuspended at 4×10^6/ml in PBS, CaCl2, MgCl2 1 mM, 10% FCS, pH 7.2. Adhesion assays were performed on eighteen well glass slides coated overnight at 4° C. with ligands for CR3 (fibrinogen) or LFA-1 (ICAM-1). 20 μl of cell suspension were added to the wells and stimulated at 37° C. with 5 μl of agonists prior to washing, fixation and computer-assisted enumeration of bound cells.
(§2) Integrin activation was measured as induction of rapid adhesion triggered by the classical chemoattractant N-formyl-L-methionyl-L-leucyl-phenylalanine (fMLP) (100 nM) or by the CC chemokine MIP3β (CCL19, 1 μM). PMNs and monocytes were triggered to adhere to fibrinogen (CR3 ligand); naive human lymphocytes or murine encephalitogenic T cells were triggered to adhere to ICAM-1 (LFA-1 ligand). Triggered adhesion was evaluated after 2 min of stimulation under static conditions. The cells were pretreated at 37° C. for 30-60 min with the indicated concentrations of the test compound. Results are expressed as percentage of inhibition over control (=100%) and are the mean of three experiments in the case of human leukocytes. Results are expressed as mean counts and are the mean counts±S.D of three experiments and are the mean of three experiments in the case of murine encephalitogenic lymphocytes.
(§3) Integrin activation was measured as induction of rapid adhesion triggered by the “classical” chemoattractant fMLP (100 nM) or by the CC chemokine MIP3β(CCL19, 1 μM). PMNs were triggered to adhere to fibrinogen (CR3 ligand); lymphocytes were triggered to adhere to ICAM-1 (LFA-1 ligand).

[2] = system: encephalitogenic lymphocytes; assay: Chemokine-induced adhesion of murine encephalitogenic T cells to ICAM-1; assay type: cell-based, murine (SJL mice); conditions: NT control in the same cell
Description: as §1, §2
Chemokines trigger rapid arrest of lymphocytes in blood vessels through pertussis toxin-sensitive G protein coupled receptors. […] Autoreactive lymphocytes were then stimulated with 1 μM CCL19 (MIP-3beta) for 3 min.

[3] = system: Lymphocytes; assay: Chemokine-induced rapid adhesion of lymphocytes to ICAM-1 (LFA-1 ligand); assay type: cell-based; conditions: Homo sapiens, Lymphocyte, read-out: Inhibition of Adhesion (%) Lymphocytes (MIP3-β) (converted); for inhibition at 25 µM: [cpd] 25 μM; for inhibition at 50 µM: [cpd] 50 μM; for inhibition at 100 µM: [cpd] 100 μM
Description: as §1, §2, §3

SMILES	inhibition at 25 µM [1] [%]	inhibition at 50 µM [1] [%]	inhibition at 100 µM [1] [%]	Chemokine-induced Adhesion in encephalitogenic lymphocytes, Mean counts ± S.D., in absence of MIP3-β stimulation ([2]; [cpd] 5 μM)	Chemokine-induced Adhesion in encephalitogenic lymphocytes, Mean counts ± S.D., in presence of MIP3-β stimulation ([2]; [cpd] 5 μM)	Chemokine-induced Adhesion in encephalitogenic lymphocytes, Mean counts ± S.D., in absence of MIP3-β stimulation ([2]; [cpd] 50 μM)	Chemokine-induced Adhesion in encephalitogenic lymphocytes, Mean counts ± S.D., in presence of MIP3-β stimulation ([2]; [cpd] 50 μM)	inhibition at 25 µM [3] [%]	inhibition at 50 µM [3] [%]	inhibition at 100 µM [3] [%]	Chemokine-induced Adhesion in encephalitogenic lymphocytes, Mean counts ± S.D., in absence of MIP3-β stimulation ([2]; [cpd] 1 μM)	Chemokine-induced Adhesion in encephalitogenic lymphocytes, Mean counts ± S.D., in presence of MIP3-β stimulation ([2]; [cpd] 1 μM)
CCOC(=O)c1[nH]c2cc(OC)c(OC)cc2c1-c1ccncc1 [Example 81]	14.4	0.8	0	56.2 ± 11.1	84.5 ± 8.8	41.3 ± 3.6	99.2 ± 5.0	4.5	12.7	34.9	–	–
COc1ccc(-c2c3n(c4cc(OC)c(OC)cc24)CCN(S(=O)(=O)C(C)C)C3)cc1 [Example 68]	–	–	–	62.3 ± 9.0	102.8 ± 5.5	33.5 ± 6.0	74.3 ± 3.9	–	–	–	–	–
COc1ccc(-c2c(C#N)n(CCN3CCOCC3)c3cc(OC)c(OC)cc23)cc1 [Example 56]	3.4	11.6	8.7	64.1 ± 9.9	92.3 ± 2.3	49.7 ± 3.9	79.4 ± 12.1	0	12.6	72.8	–	–
COc1ccc(-c2c3n(c4cc(OC)c(OC)cc24)CCNC3)cc1 [Example 28]	34.7	41	46.5	75.7 ± 9.0	127.0 ± 5.0	48.6 ± 2.9	118.8 ± 10.8	16.7	34.8	49.1	–	–
COc1ccc(-c2c(C(N)=O)[nH]c3cc(OC)c(OC)cc23)cc1 [Example 14]	62.8	83.9	94.9	–	–	–	–	30.9	70.9	91.8	–	–
CCCn1c(C#N)c(-c2ccccc2)c2cc(OC)c(OC)cc21 [Example 50]	–	–	–	81.7 ± 11.9	124.5 ± 8.1	62.0 ± 4.0	92.0 ± 3.0	–	–	–	–	–
COCCn1c(C(=O)OC)c(-c2ccc(OC)cc2)c2cc(OC)c(OC)cc21 [Example 39]	33.8	39.1	44.8	72.9 ± 8.8	118.2 ± 10.0	44.8 ± 1.9	104.4 ± 5.0	8.2	26.4	41.4	–	–
COc1ccc(-c2c3n(c4cc(OC)c(OC)cc24)CCOC3)cc1 [Example 76]	25.6	35.7	66.3	–	–	–	–	30.1	40.3	48.3	–	–
COC(=O)c1c(-c2ccc(OC)cc2)c2cc(OC)c(OC)cc2n1CCN1CCCC1 [Example 52]	0.8	11	6.1	31.8 ± 3.1	103.2 ± 10.2	24.9 ± 12.8	82.3 ± 8.1	45.9	53.5	58.9	51.9 ± 3.9	118.9 ± 4.0
COc1ccc(-c2c(-c3nnco3)[nH]c3cc(OC)c(OC)cc23)cc1 [Example 26]	34.7	50.5	57.5	93.1 ± 7.5	125.9 ± 7.2	49.8 ± 5.9	98.9 ± 12.0	8.7	21.9	26.7	–	–
